Measurements taken from patent US6867284B1, “Peptide inhibitors of hepatitis C virus NS3 protease” (Istituto di Ricerche di Biologia Molecolare P. Angeletti …, priority 1998, dated 2005).
Square brackets hold non-standard residues; d marks the D form. Peptide text beside a SMILES is read from it. * marks the point of attachment. Dip = N[C@H](C(=O)O)C(c1ccccc1)c1ccccc1; X5 = O=C(c1nc2ccccc2s1)C(CC(F)F)N*; X8 = O=C(c1nc2ccccc2o1)C(CC(F)F)N*; Cha = N[C@@H](CC1CCCCC1)C(=O)O

Each compound was assayed against T1, HCV NS3 protease (Hepatitis C virus genotype 1b, UniProt P26663) (assay: Inhibition of NS3 protease (HPLC cleavage assay, NS3/4A complex with Pep4AK, substrate peptide 4AB)). Details: Table 1 hexapeptides, cells printed in nM; read-out: IC50.
T1 construct: an NS3/4A complex comprising the NS3 protease domain
T1 sequence (P26663 1027-1208, other chains not shown): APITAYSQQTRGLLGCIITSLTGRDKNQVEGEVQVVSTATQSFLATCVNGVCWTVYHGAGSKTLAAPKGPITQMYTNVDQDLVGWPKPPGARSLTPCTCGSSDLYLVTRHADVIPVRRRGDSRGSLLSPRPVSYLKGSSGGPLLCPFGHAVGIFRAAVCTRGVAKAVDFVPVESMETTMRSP
Format: biochemical
Experimental: Buffer solutions containing 80 μM Pep4AK were preincubated for 10 minutes with 10-200 nM protease and reactions were started by addition of substrate. Six duplicate data points at different substrate concentrations were used to calculate kinetic parameters. Incubation times were chosen in order to obtain <7% substrate conversion and reactions were stopped by addition of 40 μl 1% TFA. Cleavage of peptide substrates was determined by HPLC using a Merck-Hitachi chromatograph equipped with an autosampler. 80 μl samples were injected on a Lichrospher C18 reversed phase cartridge column (4×74 mm, 5 μm, Merck) and fragments were separated using a 10-40% acetonitrile gradient a 5%/min using a flow rate of 2.5 ml/min. Peak detection was accomplished by monitoring both the absorbance at 220 nm and tyrosine fluorescence (λex=260 nm, λem=305 nm). Cleavage products were quantitated by integration of chromatograms with respect to appropriate standards. Kinetic parameters were calculated from nonlinear least-squares fit of initial rates as a function of substrate concentration with the help of a Kaleidagraph software, assuming Michaelis-Menten kinetics.
Ki values of peptide inhibitors were calculated from substrate titration experiments performed in the presence of increasing amounts of inhibitor. Experimental data sets were simultaneously fitted to eq.1 using a multicurve fit macro with the help of a Sigmaplot software: V=(VmaxS)/(Km(1+[…])+S); (eq.1)
Alternatively, Ki values were derived from IC50 values, calculated using a four-parameter logistic function, according to eq.2: IC50−(1+S/Km)Ki (eq.2)

First: CC(=O)N[C@@H](CC(=O)O)C(=O)N[C@@H](CCC(=O)O)C(=O)N[C@H](C(=O)N[C@@H](CCC(=O)O)C(=O)N[C@@H](CC1CCCCC1)C(=O)NC(C=O)CC(F)F)C(c1ccccc1)c1ccccc1 (single isomer, unassigned) [Compound 1c (D)]
Second: CC(=O)N[C@@H](CC(=O)O)C(=O)N[C@@H](CCC(=O)O)C(=O)N[C@H](C(=O)N[C@@H](CCC(=O)O)C(=O)N[C@@H](CC1CCCCC1)C(=O)NC(CC(F)F)C(=O)c1nc2ccccc2s1)C(c1ccccc1)c1ccccc1 (stereo partly drawn) [Compound 1i] (Ac-DE[Dip]E[Cha]-X5)
The IC50 of the first is 3.5-fold lower: 43 nM for the first, 150 nM for the second.

CC(=O)N[C@@H](CC(=O)O)C(=O)N[C@@H](CCC(=O)O)C(=O)N[C@H](C(=O)N[C@@H](CCC(=O)O)C(=O)N[C@@H](CC1CCCCC1)C(=O)NC(CC(F)F)C(=O)c1nc2ccccc2o1)C(c1ccccc1)c1ccccc1 (stereo partly drawn) [Compound 1j] (Ac-DE[Dip]E[Cha]-X8) was tested, and the IC50 was 600 nM.

Same assay, conditions: Table 2 tetrapeptides and tripeptides; read-out: IC50

Going from CCC(C)[C@H](NC(=O)OCc1ccccc1)C(=O)N[C@@H](CC1CCCCC1)C(=O)NC(CC(F)F)C(=O)C(=O)O (stereo partly drawn) [Compound 3b] to CCC(C)[C@H](NC(=O)OCc1ccccc1)C(=O)N[C@H](C(=O)NC(CC(F)F)C(=O)C(=O)O)C(C)C (stereo partly drawn) [Compound 3a], the IC50 rises from 1400 nM to 16000 nM (11-fold).

Compared with CC(C)C[C@H](NC(=O)[C@H](Cc1cccs1)NC(=O)OC(C)(C)C)C(=O)NC(CC(F)F)C(=O)C(=O)O (stereo partly drawn) [Compound 5s], CC(C)C[C@H](NC(=O)[C@H](Cc1ccccc1)NC(=O)OC(C)(C)C)C(=O)NC(CC(F)F)C(=O)C(=O)O (stereo partly drawn) [Compound 5c] is 2.5-fold lower in IC50: 3800 nM for the first, 1500 nM for the second.

First: CC(=O)N[C@H](C(=O)N[C@@H](CCC(=O)O)C(=O)N[C@@H](CC1CCCCC1)C(=O)NC(CC(F)F)C(=O)C(=O)O)C(c1ccccc1)c1ccccc1 (stereo partly drawn) [Compound 2a]
Second: CC(C)(C)OC(=O)N[C@@H](CCC(=O)O)C(=O)N[C@@H](CC(F)F)C(=O)NC(CC(F)F)C(=O)C(=O)O (stereo partly drawn) [Compound 5o]
The IC50 of the first is 33-fold higher: 10000 nM for the first, 300 nM for the second. The second is the more potent here.

CC(C)C[C@H](NC(=O)[C@@H](NC(=O)OC(C)(C)C)C(C)(C)C)C(=O)NC(CC(F)F)C(=O)C(=O)O (stereo partly drawn) [Compound 5n] and CCC(C)[C@H](NC(=O)OC(C)(C)C)C(=O)N[C@@H](CC(C)C)C(=O)NC(CC(F)F)C(=O)C(=O)O (stereo partly drawn) [Compound 4f] are within 1.5-fold of each other in IC50: 720 nM for the first, 1000 nM for the second.

First: CC(C)C[C@H](NC(=O)[C@H](C/C=C/c1ccccc1)NC(=O)OC(C)(C)C)C(=O)NC(CC(F)F)C(=O)C(=O)O (stereo partly drawn) [Compound 5p]
Second: CC(C)C[C@H](NC(=O)[C@H](CCC(=O)O)NC(=O)OC(C)(C)C)C(=O)NC(CC(F)F)C(=O)C(=O)O (stereo partly drawn) [Compound 5j]
The IC50 of the first is 7.3-fold higher: 2400 nM for the first, 330 nM for the second.

CCC(C)[C@H](NC(=O)NCc1cc(C(F)(F)F)cc(C(F)(F)F)c1)C(=O)N[C@@H](CC(C)C)C(=O)NC(CC(F)F)C(=O)C(=O)O (stereo partly drawn) [Compound 4b] was tested, and the IC50 was 39000 nM.

Same assay, conditions: Table 3 capped dipeptide keto acids; read-out: IC50

Compared with CC(C)C[C@H](NC(=O)CC1(CC(=O)NS(=O)(=O)c2ccccc2)CCCC1)C(=O)NC(CC(F)F)C(=O)C(=O)O (mixture of isomers) [Compound 7n], COC(=O)CC1(CC(=O)N[C@@H](CC(C)C)C(=O)NC(CC(F)F)C(=O)C(=O)O)CCCC1 (mixture of isomers) [Compound 7m] is 12-fold higher in IC50: 7000 nM for the first, 85000 nM for the second. The first is the more potent here.

First: CCCCC(=O)N[C@@H](CC(C)C)C(=O)NC(CC(F)F)C(=O)C(=O)O (single isomer, unassigned) [Compound 7b]
Second: CC(C)C[C@H](NC(=O)CCCC(=O)O)C(=O)NC(CC(F)F)C(=O)C(=O)O (mixture of isomers) [Compound 7d]
The IC50 of the first is 9.3-fold higher: 56000 nM for the first, 6000 nM for the second. The second is the more potent here.

Compared with CC(C)C[C@H](NC(=O)Cc1ccccc1C(=O)O)C(=O)NC(CC(F)F)C(=O)C(=O)O (single isomer, unassigned) [Compound 8e], CC(C)C[C@H](NC(=O)Cc1ccccc1CC(=O)O)C(=O)NC(CC(F)F)C(=O)C(=O)O (single isomer, unassigned) [Compound 8b] is 1.6-fold lower in IC50: 13000 nM for the first, 8000 nM for the second. The second is the more potent here.

Compared with CC(C)C[C@H](NC(=O)OCc1ccccc1)C(=O)NC(CC(F)F)C(=O)C(=O)O (single isomer, unassigned) [Compound 7a], CC(C)C[C@H](NC(=O)Cc1cccs1)C(=O)NC(CC(F)F)C(=O)C(=O)O (single isomer, unassigned) [Compound 8f] is 1.8-fold lower in IC50: 74000 nM for the first, 42000 nM for the second.

CC(C)C[C@H](NC(=O)COCC(=O)O)C(=O)NC(CC(F)F)C(=O)C(=O)O (mixture of isomers) [Compound 7h] and CC(C)C[C@H](NC(=O)C1CCCCC1C(=O)O)C(=O)NC(CC(F)F)C(=O)C(=O)O (single isomer, unassigned) [Compound 8a] are the same in IC50: 32000 nM for the first, 32000 nM for the second.

Same assay, conditions: Table 4 indoline keto acids and related; read-out: IC50

Going from COc1ccc2c(c1)NC(C(=O)N[C@@H](CC(C)C)C(=O)NC(CC(F)F)C(=O)C(=O)O)C2 (single isomer, unassigned) [Compound 10a] to CC(C)C[C@H](NC(=O)C1Cc2ccc(OCC(=O)O)cc2N1)C(=O)NC(CC(F)F)C(=O)C(=O)O (single isomer, unassigned) [Compound 10f], the IC50 falls from 25000 nM to 10000 nM (2.5-fold).

CCCCC1(C(=O)NC(CC(C)C)C(=O)NC(CC(F)F)C(=O)C(=O)O)Cc2ccccc2N1 (mixture of isomers) [Compound 9b] and CC(C)CCC1(C(=O)N[C@@H](CC(C)C)C(=O)NC(CC(F)F)C(=O)C(=O)O)Cc2ccccc2N1 (mixture of isomers) [Compound 9f] are within 1.5-fold of each other in IC50: 87000 nM for the first, 120000 nM for the second.

First: CC(C)C[C@H](NC(=O)C1Cc2ccccc2N1)C(=O)NC(CC(F)F)C(=O)C(=O)O (single isomer, unassigned) [Compound 9a]
Second: CC(C)C[C@H](NC(=O)C1(CC2CC2)Cc2ccccc2N1)C(=O)NC(CC(F)F)C(=O)C(=O)O (single isomer, unassigned) [Compound 9i]
The IC50 of the first is 2.5-fold higher: 50000 nM for the first, 20000 nM for the second. The second is the more potent here.

Compared with CC(C)C[C@H](NC(=O)C1(Cc2ccccc2Cl)Cc2ccccc2N1)C(=O)NC(CC(F)F)C(=O)C(=O)O (single isomer, unassigned) [Compound 9q], CC(C)C[C@H](NC(=O)C1(Cc2ccc(Cl)s2)Cc2ccccc2N1)C(=O)NC(CC(F)F)C(=O)C(=O)O (mixture of isomers) [Compound 9w] is 1.7-fold lower in IC50: 5000 nM for the first, 3000 nM for the second.

Compared with COc1ccc2c(c1)NC(CC(C)C)(C(=O)N[C@@H](CC(C)C)C(=O)NC(CC(F)F)C(=O)C(=O)O)C2 (single isomer, unassigned) [Compound 10b], CC(C)C[C@H](NC(=O)C1(CC(C)C)Cc2ccc(Oc3ccccc3)cc2N1)C(=O)NC(CC(F)F)C(=O)C(=O)O (mixture of isomers) [Compound 10c] is 4.2-fold higher in IC50: 24000 nM for the first, 100000 nM for the second. The first is the more potent here.

First: CC(C)C[C@H](NC(=O)c1cc2ccccc2[nH]1)C(=O)NC(CC(F)F)C(=O)C(=O)O (single isomer, unassigned) [Compound 13]
Second: CC(C)C[C@H](NC(=O)C1(Cc2cccc(C(=O)O)c2)Cc2ccccc2N1)C(=O)NC(CC(F)F)C(=O)C(=O)O (single isomer, unassigned) [Compound 9u]
The IC50 of the first is 88-fold higher: 70000 nM for the first, 800 nM for the second.

Compared with CC(C)C[C@H](NC(=O)C1(C(C)c2ccccc2)Cc2ccccc2N1)C(=O)NC(CC(F)F)C(=O)C(=O)O (mixture of isomers) [Compound 9p], CC(C)C[C@H](NC(=O)C1Cc2ccc(OC3CCOC3)cc2N1)C(=O)NC(CC(F)F)C(=O)C(=O)O (mixture of isomers) [Compound 10g] is 3.8-fold lower in IC50: 88000 nM for the first, 23000 nM for the second.

CC(C)C[C@H](NC(=O)C1Cc2ccc(OCC3CCOC3)cc2N1)C(=O)NC(CC(F)F)C(=O)C(=O)O (mixture of isomers) [Compound 10h] showed an IC50 of 16000 nM.
